The values below come from patent publication US8637526B2, “Pyrazolopyrimidine JAK inhibitor compounds and methods” (Genentech, Inc., priority 2008, dated 2014).

For assay [1], the target named is human JAK3 kinase domain (Homo sapiens (Human), UniProt P52333). The assay can be described thus: biochemical. Format: biochemical. The protocol: The activity of the JAK1, JAK2, JAK3 or TYK2 kinase domains was measured in vitro by monitoring phosphorylation of JAK3 derived peptides using the Caliper LabChip technology.
human JAK3 kinase domain, sequence (P52333 783-1124): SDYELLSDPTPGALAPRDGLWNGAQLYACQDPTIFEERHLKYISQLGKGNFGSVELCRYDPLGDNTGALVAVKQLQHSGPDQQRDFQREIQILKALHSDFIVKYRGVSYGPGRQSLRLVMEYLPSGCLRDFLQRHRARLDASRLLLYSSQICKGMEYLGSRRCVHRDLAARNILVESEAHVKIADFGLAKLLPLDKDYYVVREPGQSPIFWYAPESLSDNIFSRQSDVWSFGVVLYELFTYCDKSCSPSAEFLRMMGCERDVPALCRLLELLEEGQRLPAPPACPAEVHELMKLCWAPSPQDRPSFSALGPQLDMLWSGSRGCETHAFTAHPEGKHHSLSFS
(§1) The activity of the isolated JAK3 kinase domain was measured by monitoring phosphorylation of a peptide derived from JAK3 ([…] fluorescently labeled on the N-terminus with 5-carboxyfluorescein using the Caliper LabChip technology (Caliper Life Sciences, Hopkinton, Mass.). […] Reactions were incubated at 22° C. in 384-well polypropylene microtiter plates for 30 minutes and then stopped by addition of 25 uL of an EDTA containing solution (100 mM Hepes pH 7.2, 0.015% Brij-35, 150 mM EDTA), resulting in a final EDTA concentration of 50 mM. After termination of the kinase reaction, the proportion of phosphorylated product was determined as a fraction of total peptide substrate using the Caliper LabChip 3000 according to the manufacturer's specifications.

Assay [2] deals with human JAK2 kinase domain (Homo sapiens (Human), UniProt O60674). In words: JAK2 Inhibition Assay Protocol (Caliper LabChip peptide phosphorylation). To be noted: enzymatic activity, 25 uM ATP; read-out: JAK2i Ki. The assay is classed as biochemical.
human JAK2 kinase domain, sequence (O60674 812-1132): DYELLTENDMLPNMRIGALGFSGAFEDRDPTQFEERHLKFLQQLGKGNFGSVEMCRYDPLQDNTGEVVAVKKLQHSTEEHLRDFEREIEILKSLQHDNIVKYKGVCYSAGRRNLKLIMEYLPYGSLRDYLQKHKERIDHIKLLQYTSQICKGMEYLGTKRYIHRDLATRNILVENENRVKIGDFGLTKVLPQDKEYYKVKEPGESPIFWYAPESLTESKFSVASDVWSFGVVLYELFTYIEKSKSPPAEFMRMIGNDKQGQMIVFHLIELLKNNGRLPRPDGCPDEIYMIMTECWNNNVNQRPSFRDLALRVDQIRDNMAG
Text: Saltzman et al., Biochem. Biophys. Res. Commun. 246:627-633 (2004). The catalytically active kinase domain of human JAK2 was purified from extracts of SF9 insect cells infected with a recombinant baculovirus expression vector encoding the human JAK2 kinase domain (amino acid residues D812-G1132 according to the numbering of GenBank sequence accession number NP_004963.1). The activity of the JAK2 kinase domain can be measured by a number of direct and indirect methods, including quantification of phosphorylation of peptide substrates derived from the human JAK3 protein Saltzman et al., Biochem. Biophys. Res. Commun. 246:627-633 (2004). The activity of the JAK2 kinase domain was measured in vitro by monitoring phosphorylation of JAK3 derived peptides using the Caliper LabChip technology (see Examples).
The activity of the isolated kinase domain of JAK2 can be measured by monitoring phosphorylation of peptide substrates derived from the human JAK3 kinase in vitro Saltzman et al., Biochem. Biophys. Res. Commun. 246:627-633 (2004). The human JAK2 kinase domain was expressed with an N-terminal His6 tag followed by a thrombin cleavage site using the baculovirus expression vector system. The kinase domain expressed is defined as amino acid residues D812-G1132 according to the numbering of GenBank sequence accession number NP_004963.1. Recombinant DNA transfer vectors were co-transfected with BakPAK6 linearized DNA (Clontech Laboratories, Inc., Mountain View, Calif.) and the resulting viral stocks were amplified using standard protocols. Protein was produced in SF9 cells grown to a cell density of 2E6/mL in ESF921 media (Expression Systems LLC, Woodland, Calif.) and infected at an M.O.I. of 1 in Wave bioreactors. The cells were harvested 72 hours post infection, and active JAK2 enzyme was purified from the lysates of infected cells by Ni-NTA (Qiagen, Valencia, Calif.) column chromatography followed by Sephacryl S-200 (GE Healthcare, Piscataway, N.J.) column chromatography.
The catalytically active kinase domain of human JAK1, JAK2, JAK3 or TYK2 was purified from extracts of SF9 insect cells infected with a recombinant baculovirus expression vector encoding the human JAK1, JAK2, JAK3 or TYK2 kinase domains (JAK1 amino acid residues N852-D1154 according to the numbering of GenBank sequence accession number P23458, JAK2 amino acid residues D812-G1132 according to the numbering of GenBank sequence accession number NP_004963.1; JAK3 amino acid residues S783-S1124 according to the numbering of GenBank sequence accession number P52333, and TYK2 amino acid residues N873-C1187 according to the numbering of GenBank sequence accession number P29597). The activity of the JAK1, JAK2, JAK3 or TYK2 kinase domains can be measured by a number of direct and indirect methods, including quantification of phosphorylation of peptide substrates derived from the human JAK3 protein (Saltzman et al., Biochem. Biophys. Res. Commun. 246:627-633 (2004)). The activity of the JAK1, JAK2, JAK3 or TYK2 kinase domains was measured in vitro by monitoring phosphorylation of JAK3 derived peptides using the Caliper LabChip technology.
as §1, with “isolated JAK2” for “isolated JAK3”, “of […]” for “of 25 uL”, “specifications. Ki values were then determined using the Morrison tight binding model.” for “specifications.”

For assay [3], the system named is NK92 cells. The assay can be described thus: IL-12-stimulated STAT4 phosphorylation in NK92 cells (TYK2-dependent signaling, MSD). The assay is classed as cell-based. To be noted: read-out: IL12-pSTAT4 NK92 EC50. As to the method:
The activities of compounds were determined in cell-based assays that are designed to measure TYK2-dependent signaling. Compounds were serially diluted in DMSO and incubated with NK92 cells (American Type Culture Collection (ATCC); Manassas, Va.) in 96-well microtiter plates in RPMI medium at a final cell density of 100,000 cells per well and a final DMSO concentration of 0.57%. Human recombinant IL-12 (R&D systems; Minneapolis, Minn.) was then added at a final concentration of 10 ng/mL to the microtiter plates containing the NK92 cells and compound and the plates were incubated for 1 hr at 37° C. Compound-mediated effects on STAT4 phosphorylation were then measured in the lysates of incubated cells using the Meso Scale Discovery (MSD) technology (Gaithersburg, Md.) according to the manufacturer's protocol and EC50 values were determined

[4] abbreviates: enzymatic activity, 5 uM ATP, read-out: JAK3 Ki.
[5] abbreviates: NK92 cells, IL-12 10 ng/mL, 1 hr.

Structures are written as SMILES. Like-named read-outs stand apart in the source and are kept apart here.

As to `Cc1cc(NC(=O)c2cnn3ccc(N)nc23)n(-c2cc(Cl)ccc2C)n1` [Example 226], the Ki (as a rule, a dissociation constant, usually derived from enzyme kinetics or from competition with a known ligand) in assay [1] (setting [4]) was 15.7 nM; in assay [2], 0.5 nM. Besides, the EC50 – broadly, the concentration giving half of the maximal effect – in assay [3] (setting [5]) came to 336 nM.
With `Nc1ccn2ncc(C(=O)Nc3ccnn3-c3cc(Cl)ccc3Cl)c2n1` [Example 277, 5-Amino-pyrazolo[1,5-a]-pyrimidine-3-carboxylic acid [2-(2,5-dichloro-phenyl)-2H-pyrazol-3-yl]-amide], the Ki was determined as 25.4 nM in assay [1] (setting [4]) and 0.9 nM in assay [2]. Besides, the concentration giving a half-maximal response (EC50) in assay [3] (setting [5]) amounted to 603 nM.
In the same order, the values of `Cc1cc(NC(=O)c2cnn3ccc(Nc4cccc(C(F)(F)F)c4)nc23)on1` [Example 240, 5-(3-Trifluoromethyl-phenylamino)-pyrazolo-[1,5-a]pyrimidine-3-carboxylic acid (3-methyl-isoxazol-5-yl)-amide] are 95.1 nM, 3.2 nM and 579 nM.
In the same order, the values of `Cc1cc(NC(=O)c2cnn3ccc(N)nc23)n(-c2ccccc2C)n1` [Example 343, 5-Amino-pyrazolo[1,5-a]-pyrimidine-3-carboxylic acid (5-methyl-2-o-tolyl-2H-pyrazol-3-yl)-amide] are 28.6 nM, 4.2 nM and 5300 nM.
In the same order, the values of `Nc1ccn2ncc(C(=O)Nc3c[nH]nc3-c3cc(Cl)ccc3Cl)c2n1` [Example 248, 5-Amino-pyrazolo[1,5-a]-pyrimidine-3-carboxylic acid [3-(2,5-dichloro-phenyl)-1H-pyrazol-4-yl]-amide] are 1.7 nM, 0.1 nM and 158 nM.
On to `O=C(NC1CCOCC1)c1cnn2ccc(NC3Cc4ccccc4C3)nc12` [Example 297, 5-(Indan-2-ylamino)-pyrazolo[1,5-a]pyrimidine-3-carboxylic acid (tetrahydro-pyran-4-yl)-amide], for which the inhibition constant (Ki) is 39.7 nM in assay [1] (setting [4]) and 1.6 nM in assay [2]. Besides, in assay [3] (setting [5]), the EC50 was 1100 nM.
On to `Cc1nc(-c2ccccc2C)c(NC(=O)c2cnn3ccc(N)nc23)s1` [Example 231, 5-amino-pyrazolo[1,5-a]pyrimidine-3-carboxylic acid (2-methyl-4-o-tolyl-thiazol-5-yl)-amide], for which the results for the Ki in assay [1] (setting [4]) and in assay [2] were 12.4 nM and 1.8 nM, respectively. In addition, the EC50 in assay [3] (NK92, 1 h) amounted to 3300 nM.
Regarding `O=C(N[C@H]1CC[C@H](O)CC1)c1cnn2ccc(NC3CCc4ccccc43)nc12` (stereo partly drawn) [Example 299, 5-(Indan-1-ylamino)-pyrazolo[1,5-a]pyrimidine-3-carboxylic acid (4-hydroxy-cyclohexyl)-amide], the Ki came out at 14.5 nM in assay [1] and 0.8 nM in assay [2]. In assay [3] (setting [5]), the EC50 amounted to 1770 nM.
